Columns and labels:
Assay in all cases: sensitivity of leukemia/lymphoma cell line, 5 uM cut-off
Format in all cases: cell-based
MOLT-4 = conditions: Homo sapiens, read-out: sensitivity class by EC50
Procedure: (§1) The following SCLC cell lines were obtained from ATCC (Manassis, Va.): NCI-H889, NCI-H1963, NCI-H1417, NCI-H146, NCI-H187, DMS53, NCI-H510, NCI-H209, NCI-H211, NCI-H345, NCI-H524, NCI-H69, DMS79, SHP77, NCI-H1688, NCI-H446, NCI-H740, NCI-H1048, NCI-H82, NCI-H196, SW1271, H69AR, NCI-H526, NCI-H865, NCI-H748, NCI-H711, and DMS114. All cells were cultured in the ATCC recommended media at 37° C. in a humidified atmosphere containing 5% CO2. The following leukemia and lymphoma cell lines were obtained from ATCC (Manassis, Va.): MV-4-11, RS4;11, Loucy, KG-1A, DOHH2, Rs11380, CCRF-HSB-2, CCRF-CEM, CEM/C1, Reh, SUP-B15, MOLT-4, SUDHL4, HL-60, RPMI 8226, A3, Daudi, WSU-NHL, Pfeiffer, Jurkat I 9.2, Jurkat, MEG-01, U-937, K-562, and Raji.
(§2) The 25 leukemia/lymphoma cell lines were also tested for sensitivity to ABT-737 using the 5 uM cut-off, and sensitive cell lines were MV-4-11, RS4;11, Loucy, KG-1A, DOHH2, Rs11380, CCRF-HSB-2, CCRF-CEM, CEM/C1, Reh, SUP-B15, MOLT-4, SUDHL4, HL-60, RPMI 8226, A3, Daudi, WSU-NHL, Pfeiffer, and Jurkat I 9.2, and the resistant cell lines Jurkat, MEG-01, U-937, K-562, and Raji.
(§3) The 25 leukemia/lymphoma cell lines were also tested for sensitivity to ABT-263 using the 5 uM cut-off, and sensitive cell lines were MV-4-11, RS4;11, Loucy, KG-1A, DOHH2, Rs11380, CCRF-HSB-2, CCRF-CEM, CEM/C1, Reh, SUP-B15, MOLT-4, SUDHL4, HL-60, RPMI 8226, A3, Daudi, WSU-NHL, Pfeiffer, and Jurkat I 9.2, and the resistant cell lines Jurkat, MEG-01, U-937, K-562, and Raji.

DOHH2 = conditions: Homo sapiens, DOHH-2, read-out: sensitivity class by EC50
Procedure: as §1, §2, §3

Jurkat I 9.2 = conditions: Homo sapiens, read-out: sensitivity class by EC50
Procedure: as §1, §2, §3

CCRF-CEM = conditions: Homo sapiens, read-out: sensitivity class by EC50
Procedure: as §1, §2, §3

U-937 = conditions: Homo sapiens, read-out: sensitivity class by EC50
Procedure: as §1, §2, §3

MV-4-11 = conditions: Homo sapiens, MV4-11, read-out: sensitivity class by EC50
Procedure: as §1, §2, §3

WSU-NHL = conditions: Homo sapiens, read-out: sensitivity class by EC50
Procedure: as §1, §2, §3

K-562 = conditions: Homo sapiens, K562, read-out: sensitivity class by EC50
Procedure: as §1, §2, §3

SUDHL4 = conditions: Homo sapiens, SU-DHL-4, read-out: sensitivity class by EC50
Procedure: as §1, §2, §3

SUP-B15 = conditions: Homo sapiens, read-out: sensitivity class by EC50
Procedure: as §1, §2, §3

KG-1A = conditions: Homo sapiens, read-out: sensitivity class by EC50
Procedure: as §1, §2, §3

Daudi = conditions: Homo sapiens, read-out: sensitivity class by EC50
Procedure: as §1, §2, §3

Jurkat = conditions: Homo sapiens, read-out: sensitivity class by EC50
Procedure: as §1, §2, §3

Loucy = conditions: Homo sapiens, read-out: sensitivity class by EC50
Procedure: as §1, §2, §3

CCRF-HSB-2 = conditions: Homo sapiens, read-out: sensitivity class by EC50
Procedure: as §1, §2, §3

Pfeiffer = conditions: Homo sapiens, read-out: sensitivity class by EC50
Procedure: as §1, §2, §3

HL-60 = conditions: Homo sapiens, read-out: sensitivity class by EC50
Procedure: as §1, §2, §3

Raji = conditions: Homo sapiens, read-out: sensitivity class by EC50
Procedure: as §1, §2, §3

RS4;11 = conditions: Homo sapiens, read-out: sensitivity class by EC50
Procedure: as §1, §2, §3

Rs11380 = conditions: Homo sapiens, read-out: sensitivity class by EC50
Procedure: as §1, §2, §3

RPMI 8226 = conditions: Homo sapiens, read-out: sensitivity class by EC50
Procedure: as §1, §2, §3

Reh = conditions: Homo sapiens, read-out: sensitivity class by EC50
Procedure: as §1, §2, §3

CEM/C1 = conditions: Homo sapiens, read-out: sensitivity class by EC50
Procedure: as §1, §2, §3

MEG-01 = conditions: Homo sapiens, read-out: sensitivity class by EC50
Procedure: as §1, §2, §3

A3 = conditions: Homo sapiens, read-out: sensitivity class by EC50
Procedure: as §1, §2, §3

SMILES | EC50 (MOLT-4) [µM] | EC50 (DOHH2) [µM] | EC50 (Jurkat I 9.2) [µM] | EC50 (CCRF-CEM) [µM] | EC50 (U-937) [µM] | EC50 (MV-4-11) [µM] | EC50 (WSU-NHL) [µM] | EC50 (K-562) [µM] | EC50 (SUDHL4) [µM] | EC50 (SUP-B15) [µM] | EC50 (KG-1A) [µM] | EC50 (Daudi) [µM] | EC50 (Jurkat) [µM] | EC50 (Loucy) [µM] | EC50 (CCRF-HSB-2) [µM] | EC50 (Pfeiffer) [µM] | EC50 (HL-60) [µM] | EC50 (Raji) [µM] | EC50 (RS4;11) [µM] | EC50 (Rs11380) [µM] | also measured
CC1(C)CCC(c2ccc(Cl)cc2)=C(CN2CCN(c3ccc(C(=O)NS(=O)(=O)c4ccc(N[C@H](CCN5CCOCC5)CSc5ccccc5)c(S(=O)(=O)C(F)(F)F)c4)cc3)CC2)C1 [ABT-263, N-(4-(4-((2-(4-chlorophenyl)-5,5-dimethyl-1-cyclohex-1-en-1-yl)methyl)piperazin-1-yl)benzoyl)-4-(((1R)-3-(morpholin-4-yl)-1-((phenylsulfanyl)methyl)propyl)amino)-3-((trifluoromethyl)sulfonyl)benzenesulfonamide] | < 5 | < 5 | < 5 | < 5 | > 5 | < 5 | < 5 | > 5 | < 5 | < 5 | < 5 | < 5 | > 5 | < 5 | < 5 | < 5 | < 5 | > 5 | < 5 | < 5 | EC50 (RPMI 8226): < 5 µM; EC50 (Reh): < 5 µM; EC50 (CEM/C1): < 5 µM; EC50 (MEG-01): > 5 µM; EC50 (A3): < 5 µM
CN(C)CC[C@H](CSc1ccccc1)Nc1ccc(S(=O)(=O)NC(=O)c2ccc(N3CCN(Cc4ccccc4-c4ccc(Cl)cc4)CC3)cc2)cc1[N+](=O)[O-] [ABT-737, N-(4-(4-((4′-chloro(1,1′-biphenyl)-2-yl)methyl)piperazin-1-yl)benzoyl)-4-(((1R)-3-(dimethylamino)-1-((phenylsulfanyl)methyl)propyl)amino)-3-nitrobenzenesulfonamide] | < 5 | < 5 | < 5 | < 5 | > 5 | < 5 | < 5 | > 5 | < 5 | < 5 | < 5 | < 5 | > 5 | < 5 | < 5 | < 5 | < 5 | > 5 | < 5 | < 5 | EC50 (RPMI 8226): < 5 µM; EC50 (Reh): < 5 µM; EC50 (CEM/C1): < 5 µM; EC50 (MEG-01): > 5 µM; EC50 (A3): < 5 µM
